These results are taken from US20040023951A1, “Combination therapy for treatment of psychoses” (priority 2002, published 2004).

The subject of this data set is Rats. Briefly: Conditioned avoidance behavior in rats. Type of data set: in vivo, rat. The text has this: Conditioned Avoidance Behavior in Rats:
In a conditioned avoidance test, animals learn to respond during a conditioned stimulus in order to avoid mild shock presentation. A response during the conditioned stimulus is termed an avoidance response, a response during shock is termed an escape response; a response failure is when the animal fails to respond during either the conditioned stimulus or the shock presentation and is indicative of motor impairment. […] Antipsychotic drugs decrease the percentage of avoidance responses without interfering with the ability of the animal to respond since the animals do emit escape responses. The percentage of response failures is considered a measure of motor impairment.
Rats were required to press a response lever in an experimental chamber in order to avoid or escape foot-shock. Each experimental session consisted of 50 trials. During each trial, the chamber was illuminated and a tone presented for a maximum of 10 sec. A response during the tone immediately terminated the tone and the houselight, ending the trial. In the absence of a response during the tone alone, tone+foot-shock (2.0 mA) was presented for a maximum of 10 sec. A response during shock presentation immediately terminated the shock, the tone and the houselights ending the trial.
If the effects are simply additive the results will be additive. If the effects of are synergistic, then the dose of second component required to produce full efficacy will be decreased.

Setting [1] is: first component dose 0.16 in combination with Xanomeline dose 10.
Setting [2] is: first component dose 0.32 in combination with Xanomeline dose 10.
Setting [3] is: first component dose 0.625 in combination with Xanomeline dose 10.
Setting [4] is: first component dose 1.25 in combination with Xanomeline dose 10.
[5] abbreviates: first component dose 2.5 in combination with Xanomeline dose 10.
The mark [6] stands for this setting: first component dose 0.01 in combination with Xanomeline dose 10.
The mark [7] stands for this setting: first component dose 0.03 in combination with Xanomeline dose 10.
The mark [8] stands for this setting: first component dose 0.1 in combination with Xanomeline dose 10.
Setting [9] is: first component dose 0.3 in combination with Xanomeline dose 10.
[10] abbreviates: first component dose 0.001 in combination with Xanomeline dose 10.
Where [11] appears, read: first component dose 0.003 in combination with Xanomeline dose 10.
Where [12] appears, read: given alone, dose 0.03 (dose unit not given).
Setting [13] is: Xanomeline dose 10 with first component dose 0 (combination series).

SMILES strings stand for the structures. Values joined by “and” are separate entries in the source; they are usually repeats but may differ in a detail not shown here. Equal entries are not always repeated.

`CN(C)CCCN1c2ccccc2Sc2ccc(Cl)cc21` [Chlorpromazine]: the “% Avoidance Responses ± SEM” value under setting [1] was 56 ± 11%; the “% Avoidance Responses ± SEM” value under setting [2] was 46 ± 22%; the “% Avoidance Responses ± SEM” value under setting [3] was 30 ± 17%; the “% Avoidance Responses ± SEM” value under setting [4] is recorded as 20 ± 10%; the “% Avoidance Responses ± SEM” value under setting [5] was 22 ± 7%; the “% Avoidance Responses ± SEM” value (given alone, dose 1.25) was 99 ± 1%. Also, the “% Avoidance Responses ± SEM” value reads like this: (given alone, dose 2.5) 96 ± 4%; (given alone, dose 5) 27 ± 12%; (given alone, dose 10) 10 ± 4%. Besides, the “% Response Failures ± SEM” value came out at 1 ± 1% under setting [1]; 19 ± 19% under setting [2]; 0 ± 0% under setting [3]; 8 ± 7% under setting [4]; 1 ± 0% under setting [5]; 0 ± 0% (given alone, dose 1.25). For the same compound, the “% Response Failures ± SEM” value is 0 ± 0% (given alone, dose 2.5); 7 ± 5% (given alone, dose 5); 16 ± 8% (given alone, dose 10).

`OCCN1CCN(CCCN2c3ccccc3Sc3ccc(C(F)(F)F)cc32)CC1` [Fluphenazine]: the “% Avoidance Responses ± SEM” value was found to be 77 ± 12% under setting [6]; 52 ± 12% under setting [7]; 66 ± 11% under setting [8]; 33 ± 16% under setting [9]; 100 ± 0% (given alone, dose 0.1); 67 ± 9% (given alone, dose 0.3). Besides, where the note is “given alone, dose 1”, the “% Avoidance Responses ± SEM” value is recorded as 33 ± 6%. The “% Response Failures ± SEM” value amounted to 1 ± 0% under setting [6]; 3 ± 2% under setting [7]; 0 ± 0% under setting [8]; 6 ± 6% under setting [9]; 0 ± 0% (given alone, dose 0.1); 2 ± 1% (given alone, dose 0.3). For the same compound, the “% Response Failures ± SEM” value (given alone, dose 1) worked out at 28 ± 9%.

Turning to `O=C(CCCN1CCC(O)(c2ccc(Cl)cc2)CC1)c1ccc(F)cc1` [Haloperidol], the “% Avoidance Responses ± SEM” value is on record as 70 ± 12% under setting [10]; 45 ± 13% under setting [11]; 57 ± 6% under setting [6]; 27 ± 8% under setting [7]; 98.0 ± 1.0% under setting [12]; 59.0 ± 13.0% (given alone, dose 0.1). Besides, the “% Avoidance Responses ± SEM” value (given alone, dose 0.3) was 10.0 ± 2.0%. The “% Response Failures ± SEM” value under setting [10] was found to be 5 ± 3%; the “% Response Failures ± SEM” value under setting [11] was 14 ± 11%; the “% Response Failures ± SEM” value under setting [6] turned out to be 1 ± 0%; the “% Response Failures ± SEM” value under setting [7] came to 8 ± 6%; the “% Response Failures ± SEM” value (given alone, dose 0.03 (dose unit not given), measure of motor impairment) worked out at 1 ± 0%; the “% Response Failures ± SEM” value (given alone, dose 0.1) amounted to 2 ± 1%. In addition, the “% Response Failures ± SEM” value (given alone, dose 0.3) is 25 ± 12%.

`Cc1cc2c(s1)Nc1ccccc1N=C2N1CCN(C)CC1` [Olanzapine, 2-methyl-4-(4-methyl-1-piperazinyl)-10H-thieno[2,3-b][1,5]benzodiazepine]: the “% Avoidance Responses ± SEM” value by setting is: under setting [6], 66 ± 11%; under setting [7], 47 ± 12%; under setting [8], 56 ± 6%; under setting [9], 53 ± 14%; (first component dose 1.0 in combination with Xanomeline dose 10) 9 ± 6%; (given alone, dose 1) 98 ± 1%. Besides, the “% Avoidance Responses ± SEM” value by setting is: (given alone, dose 3) 59 ± 16%; (given alone, dose 10) 2 ± 1%.

On to `Cc1nc2n(c(=O)c1CCN1CCC(c3noc4cc(F)ccc34)CC1)CCCC2` [Risperidone, 3-[2-[4-(6-fluoro-1,2-benzisoxazol-3-yl)piperidino]ethyl]-2-methyl-6,7,8,9-tetrahydro-4H-pyrido[1,2-a]pyrimidin-4-one], for which the “% Avoidance Responses ± SEM” value reads like this: under setting [10], 48 ± 8%; under setting [11], 48 ± 16%; under setting [6], 23 ± 14%; under setting [7], 8 ± 2%; under setting [12], 100 ± 0%; (given alone, dose 0.1) 91 ± 5%. For the same compound, the “% Avoidance Responses ± SEM” value (given alone, dose 0.3) is 37 ± 11% and the “% Avoidance Responses ± SEM” value (given alone, dose 1) is on record as 2 ± 1%.

As for `CCCCCCOc1nsnc1C1=CCCN(C)C1` [Xanomeline, 3-(4-hexyloxy-1,2,5-thiadiazol-3-yl)-1,2,5,6-tetrahydro-1-methylpyridine], the “% Avoidance Responses ± SEM” value under setting [13] was 87 ± 9% and 56 ± 13% and 72 ± 13%; the “% Avoidance Responses ± SEM” value (given alone, dose 1) was 98 ± 2% and 99 ± 0%; the “% Avoidance Responses ± SEM” value (given alone, dose 3) was 93 ± 3% and 99 ± 1%; the “% Avoidance Responses ± SEM” value (given alone, dose 10) was 44 ± 18% and 78 ± 12% and 63 ± 18%; the “% Avoidance Responses ± SEM” value (given alone, dose 17.5) is recorded as 11 ± 4%. For the same compound, the “% Response Failures ± SEM” value is, setting by setting: under setting [13], 0 ± 0%; (given alone, dose 1) 0 ± 0%; (given alone, dose 3) 0 ± 0%; (given alone, dose 10) 2 ± 1% and 1 ± 0%; (given alone, dose 17.5) 2 ± 1%.
